Data on one compound can be found in US11137392B2, “Cantilever sensors for molecule detection” (3P SENSE LIMITED, priority 2016, dated 2021).

The subject of assay [1] is vancomycin susceptible receptor (VSR). Particulars: previous measurements (known cantilever); cited from earlier work.
Assay [2] has the same test system. Kind of assay: Differential cantilever bending / surface stress of unpassivated VSR-functionalized cantilevers against Van. The class given is binding. The procedure:
Detection of cantilever bending response in case of optical readout is performed, for example, by using serial time multiplexed optical beam method with a single position sensitive detector, although other readouts such as electronic or diffraction can be used. The laser spot (about 100 μm diameter) is aligned onto the free end of each sensor where the accuracy of alignment is confirmed by heating test. The expected precision of laser spot alignment is determined by calculating the bending variation at the maximum bending signals between individual cantilever sensors. Well aligned cantilevers at the maximum bending signals should yield a relative standard deviation of the bending signals of about ≤10%, preferably about ≤5%, between them. Correlating the response signal to the presence or absence of the molecule to be detected includes a first step of calculating the net change in stress, using the mathematical model reported above, and then a second step of associating the net change in stress value to the presence of absence of the molecule and, in case of presence, to the concentration level of the molecule.
Case I: Simultaneous functionalization of Au(top) and Si(bottom) surfaces of cantilever arrays: To systematically alter both Au(top) and Si(bottom) surfaces into chemically active sensing layers, the arrays of eight rectangular cantilevers were subjected to surface capture molecules in micro-capillary glass tubes (King Precision Glass, Claremont, Calif., USA), arranged according to the cantilever pitch size of 250 μm. The alkanethiols of self-assembled monolayers (SAMs), namely vancomycin susceptible receptor (VSR˜0.6 kDa) analogues to bacterial cell wall precursors that present uncrosslinked peptide motifs terminating in the sequence lysine-D-alanine-D-alanine and ‘inert’ SAM molecule terminating in triethylene glycol (PEG) whose detailed structural sequences have been described previously were diluted in ethanol solution to yield total concentrations of: 0.1 μM, 1 μM, 10 μM, 50 μM, 100 μM, 1000 μM, 2000 μM, 3000 μM and 4000 μM. Individual VSR and PEG concentrations were injected into micro-capillary glass tubes and cantilevers were then incubated inside the capillaries for 20 min, washed three times with ethanol and stored in distilled water until usage. The functionalization procedure was carried out without pre-adsorbing resistive protein monolayer bovine serum albumin (BSA) or PEG-silane, known for blocking nonspecific interactions.
To tune the receptor footprint (area per each receptor molecule) for enhanced biodetectability and to achieve satisfactory quantitative drug-target measurements, certain steps within the functionalization protocol were addressed. The first task was to define the percentage ratio of VSR by incorporating a receptor molecule with second SAM-forming molecule PEG. The ratio of VSR and PEG molecules dissolved in ethanol was varied to yield a total concentration in the solution of 1 μM, for which full surface coverage was established. The corresponding mixed ethanolic thiol solutions of VSR and ‘inert’ PEG mixed in the ratio of 30%, 70%, 90%, and 100% were used to coat cantilever arrays.
FIG. 1a-b show the functionalization of both surfaces of the cantilever with a self-assembled monolayer (SAM) of vancomycin (Van) susceptible receptor (VSR ˜0.6 kDa) analogues of the bacterial cell wall precursors that present uncrosslinked peptide motifs terminating in the sequence lysine-D-alanine-D-alanine. To eliminate the artifacts that produce non-specific signals differential measurements were performed in which reference polyethylene glycol(PEG)-coated cantilever bending signals were subtracted from the receptor signals.
This functionalization was performed without pre-adsorbing a resistive protein monolayer of bovine serum albumin (BSA) or PEG-silane, which are known to block non-specific interactions. […]

For `CN[C@H](CC(C)C)C(=O)N[C@H]1C(=O)N[C@@H](CC(N)=O)C(=O)N[C@H]2C(=O)N[C@H]3C(=O)N[C@H](C(=O)N[C@H](C(=O)O)c4cc(O)cc(O)c4-c4cc3ccc4O)[C@H](O)c3ccc(c(Cl)c3)Oc3cc2cc(c3O[C@@H]2O[C@H](CO)[C@@H](O)[C@H](O)[C@H]2O[C@H]2C[C@](C)(N)[C@H](O)[C@H](C)O2)Oc2ccc(cc2Cl)[C@H]1O` [Van, vancomycin], the “Net stress, previous measurements” value in assay [1] is 33 mN m^−1. Further, the “Compressive stress (differential surface stress)” value in assay [2] (Van 250 μM, VSR 50 μM in functionalizing solution, unpassivated cantilever) is on record as 52 mN m^−1. In assay [2] (Van 250 μM, VSR concentration beyond 50 μM (regime II)), the “Stress signal σmax” value was “≈ 5 mN m^−1”. Moreover, the Cantilever stress entry in assay [2] (Van 250 μM, VSR/PEG 100% receptor, total concentration 1 μM) is “highest stress”. Besides, the Cantilever deflection signal result in assay [2] (Van 250 μM, VSR/PEG ~30% receptor, total concentration 1 μM) is “negligible”. Further, the “Differential stress / bending response on reference PEG-coated cantilevers” value in assay [2] (Van 250 μM, reference PEG-coated cantilevers) was “no bending response and zero”. Also, the “Mechanical response on uncoated Au and Si surfaces” value in assay [2] (in the presence of Van, uncoated Au and Si surfaces as control) is “undetectable”.
